The assay deals with CD2F1 mice, L1210 leukemia ip, survival T/C. In words: NCI In Vivo Anticancer Drug Screen. Data for tumor model L1210 Leukemia (intraperitoneal) in CD2F1 (CDF1) mice. Particulars: higher = longer survival. Put shortly: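 In this screen, transplantable tumors were grown in mice given either the compound or its vehicle. Results were expressed as the treated measurement relative to the control measurement.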

The mark [1] stands for this setting: endpoint: mean survival time, dose: 100.0 mg/kg/injection, schedule: Q01DX009 (ip), vehicle: saline with Tween-80.
[2] abbreviates: endpoint: mean survival time, dose: 200.0 mg/kg/injection, schedule: Q01DX009 (ip), vehicle: saline with Tween-80.
Setting [3] is: endpoint: mean survival time, dose: 100.0 mg/kg/injection, schedule: Q04DX003 (ip), vehicle: saline.
The mark [4] stands for this setting: endpoint: mean survival time, dose: 100.0 mg/kg/injection, schedule: Q01DX001 (ip), vehicle: saline with Tween-80.
Where [5] appears, read: endpoint: mean survival time, dose: 200.0 mg/kg/injection, schedule: Q01DX001 (ip), vehicle: saline with Tween-80.
Setting [6] is: endpoint: mean survival time, dose: 400.0 mg/kg/injection, schedule: Q01DX001 (ip), vehicle: saline with Tween-80.
Setting [7] is: endpoint: mean survival time, dose: 100.0 mg/kg/injection, schedule: Q04DX002 (ip), vehicle: saline with Tween-80.
Where [8] appears, read: endpoint: mean survival time, dose: 100.0 mg/kg/injection, schedule: Q04DX003 (ip), vehicle: saline with Tween-80.
[9] abbreviates: endpoint: mean survival time, dose: 200.0 mg/kg/injection, schedule: Q04DX003 (ip), vehicle: saline with Tween-80.
Setting [10] is: endpoint: mean survival time, dose: 400.0 mg/kg/injection, schedule: Q04DX003 (ip), vehicle: saline with Tween-80.
Setting [11] is: endpoint: mean survival time, dose: 400.0 mg/kg/injection, schedule: Q01DX009 (ip), vehicle: saline with Tween-80.

“And” between values parts separate entries of the source, which are not always exact repeats. Equal values may be shown once. Toxic doses and inconclusive results are not listed.

Consider `N[C@@H](Cc1c[nH]c2ccccc12)C(=O)Nc1nncs1`, for which the T/C runs as follows: (endpoint: median survival time, dose: 8.35 mg/kg/injection, schedule: Q03HX027 (ip), vehicle: saline) 96 % of control; (endpoint: median survival time, dose: 16.7 mg/kg/injection, schedule: Q03HX027 (ip), vehicle: saline) 100 % of control; (endpoint: median survival time, dose: 33.4 mg/kg/injection, schedule: Q03HX027 (ip), vehicle: saline) 103 % of control; (endpoint: median survival time, dose: 47.88 mg/kg/injection, schedule: Q03HX027 (ip), vehicle: saline) 107 % of control; (endpoint: median survival time, dose: 48.0 mg/kg/injection, schedule: Q03HX027 (ip), vehicle: saline) 108 % of control; (endpoint: median survival time, dose: 50.0 mg/kg/injection, schedule: Q01DX009 (ip), vehicle: saline) 98 % of control. Also, the T/C runs as follows: (endpoint: median survival time, dose: 66.7 mg/kg/injection, schedule: Q03HX027 (ip), vehicle: saline) 103 % of control; (endpoint: median survival time, dose: 79.8 mg/kg/injection, schedule: Q03HX027 (ip), vehicle: saline) 113 % of control; (endpoint: median survival time, dose: 79.92 mg/kg/injection, schedule: Q03HX027 (ip), vehicle: saline) 113 % of control; (endpoint: median survival time, dose: 100.0 mg/kg/injection, schedule: Q01DX009 (ip), vehicle: saline) 97 % of control; (endpoint: median survival time, dose: 133.2 mg/kg/injection, schedule: Q03HX027 (ip), vehicle: saline) 116 % of control; (endpoint: median survival time, dose: 200.0 mg/kg/injection, schedule: Q01DX009 (ip), vehicle: saline) 105 % of control. For the same compound, the T/C is 116 % of control (endpoint: median survival time, dose: 222.0 mg/kg/injection, schedule: Q03HX027 (ip), vehicle: saline); 87 % of control (endpoint: median survival time, dose: 369.45 mg/kg/injection, schedule: Q03HX027 (ip), vehicle: saline); 120 % of control (endpoint: median survival time, dose: 400.0 mg/kg/injection, schedule: Q01DX009 (ip), vehicle: saline).
As to `NC(=O)c1csc(COCCO)n1`, the T/C by setting is: (endpoint: median survival time, dose: 40.63 mg/kg/injection, schedule: Q01DX005 (ip), vehicle: water) 102 % of control; (endpoint: median survival time, dose: 81.25 mg/kg/injection, schedule: Q01DX005 (ip), vehicle: water) 99 % of control; (endpoint: median survival time, dose: 162.5 mg/kg/injection, schedule: Q01DX005 (ip), vehicle: water) 103 % of control; (endpoint: median survival time, dose: 325.0 mg/kg/injection, schedule: Q01DX005 (ip), vehicle: water) 96 % of control.
For the compound `CCCCOC(=O)CC(O)C(=O)OCCCC` (stereo not drawn), the T/C was 113 % of control (endpoint: mean survival time, dose: 50.0 mg/kg/injection, schedule: Q01DX009 (ip), vehicle: saline with Tween-80); 107 % of control under setting [1]; 103 % of control under setting [2].
Regarding `CCCCCCCCCCSCC`, the T/C is 101 % of control (endpoint: mean survival time, dose: 100.0 mg/kg/injection, schedule: Q01DX009 (ip), vehicle: saline); 103 % of control under setting [3]; 104 % of control (endpoint: mean survival time, dose: 200.0 mg/kg/injection, schedule: Q01DX009 (ip), vehicle: saline); 103 % of control (endpoint: mean survival time, dose: 200.0 mg/kg/injection, schedule: Q04DX003 (ip), vehicle: saline); 101 % of control (endpoint: mean survival time, dose: 400.0 mg/kg/injection, schedule: Q01DX009 (ip), vehicle: saline); 103 % of control (endpoint: mean survival time, dose: 400.0 mg/kg/injection, schedule: Q04DX003 (ip), vehicle: saline).
On to `Nc1nc(N)c2c(n1)NCN(CCc1ccc(Cl)cc1)C2`, for which the T/C runs as follows: (endpoint: mean survival time, dose: 0.75 mg/kg/injection, schedule: Q01DX009 (ip), vehicle: distilled water + Tween-80) 100 % of control; (endpoint: mean survival time, dose: 1.5 mg/kg/injection, schedule: Q01DX009 (ip), vehicle: distilled water + Tween-80) 102 % of control; (endpoint: mean survival time, dose: 3.0 mg/kg/injection, schedule: Q01DX009 (ip), vehicle: distilled water + Tween-80) 102 % of control; (endpoint: mean survival time, dose: 6.0 mg/kg/injection, schedule: Q01DX009 (ip), vehicle: distilled water + Tween-80) 100 % of control; (endpoint: mean survival time, dose: 12.0 mg/kg/injection, schedule: Q01DX009 (ip), vehicle: distilled water + Tween-80) 100 % of control; (endpoint: mean survival time, dose: 24.0 mg/kg/injection, schedule: Q01DX009 (ip), vehicle: distilled water + Tween-80) 98 % of control.
Take `NC1CCCCC1N.O=S(=O)([O-])CCCN1CCN(CCO)CC1.O=S(=O)([O-])CCCN1CCN(CCO)CC1.[Pt+4]`: the T/C by setting is: (endpoint: median survival time, dose: 0.78 mg/kg/injection, schedule: Q04DX003 (ip), vehicle: saline) 121 % of control; (endpoint: median survival time, dose: 1.56 mg/kg/injection, schedule: Q04DX003 (ip), vehicle: saline) 120 % of control; (endpoint: median survival time, dose: 6.25 mg/kg/injection, schedule: Q04DX003 (ip), vehicle: saline) 168 % of control and 175 % of control; (endpoint: median survival time, dose: 12.5 mg/kg/injection, schedule: Q04DX003 (ip), vehicle: saline) 212 % of control and 487 % of control; (endpoint: median survival time, dose: 25.0 mg/kg/injection, schedule: Q04DX003 (ip), vehicle: saline) 256 % of control and 487 % of control; (endpoint: median survival time, dose: 50.0 mg/kg/injection, schedule: Q04DX003 (ip), vehicle: saline) 151 % of control and 170 % of control.
With `COc1ccc(CCF)cc1`, the T/C under setting [4] is 110 % of control, the T/C under setting [5] was 100 % of control and the T/C under setting [6] is 114 % of control.
As for `c1ccc2c(c1)sc1[n+]2CCS1`, the T/C (endpoint: mean survival time, dose: 75.0 mg/kg/injection, schedule: Q01DX001 (ip), vehicle: saline) is 113 % of control.
With `C1CC[N-]CC1.C1CC[N-]CC1.C1CC[N-]CC1.C1CC[N-]CC1.[Co].[N-]=C=S.[N-]=C=S`, the T/C under setting [7] is 123 % of control.
On to `CCOC(=O)Nc1cc2c(c(N)n1)N=C(c1ccc(Cl)cc1Cl)CN2`, for which the T/C is 106 % of control (endpoint: median survival time, dose: 3.12 mg/kg/injection, schedule: Q01DX009 (ip), vehicle: saline with Tween-80); 112 % of control (endpoint: median survival time, dose: 6.25 mg/kg/injection, schedule: Q01DX009 (ip), vehicle: saline with Tween-80); 114 % of control (endpoint: median survival time, dose: 12.5 mg/kg/injection, schedule: Q01DX009 (ip), vehicle: saline with Tween-80).
As to `CCSC/C(=N\Nc1ccc([N+](=O)[O-])cc1[N+](=O)[O-])c1ccccc1`, the T/C was 109 % of control under setting [8], 109 % of control under setting [9] and 102 % of control under setting [10].
As to `COc1ccc(-n2cnc3c(=O)[nH]cnc32)cc1`, the T/C reads like this: under setting [7], 86 % of control; (endpoint: mean survival time, dose: 200.0 mg/kg/injection, schedule: Q04DX002 (ip), vehicle: saline with Tween-80) 90 % of control; (endpoint: mean survival time, dose: 400.0 mg/kg/injection, schedule: Q04DX002 (ip), vehicle: saline with Tween-80) 86 % of control.
Regarding `O=C(Nc1ccccc1)Nc1ccccc1C(=O)O`, the T/C is 100 % of control under setting [4], 95 % of control under setting [5] and 94 % of control under setting [6].
Take `Cc1cc2c(cc1C)C(=O)C(N(C)C)=CC2=O`: the T/C is 102 % of control under setting [1], 98 % of control under setting [2] and 91 % of control under setting [11].
Regarding `O=C(O)CCN1CCCc2ccccc21`, the T/C (endpoint: mean survival time, dose: 100.0 mg/kg/injection, schedule: Q01DX009 (ip), vehicle: other) is 109 % of control; the T/C (endpoint: mean survival time, dose: 100.0 mg/kg/injection, schedule: Q04DX003 (ip), vehicle: other) is 95 % of control; the T/C (endpoint: mean survival time, dose: 200.0 mg/kg/injection, schedule: Q01DX009 (ip), vehicle: other) was 103 % of control; the T/C (endpoint: mean survival time, dose: 200.0 mg/kg/injection, schedule: Q04DX003 (ip), vehicle: other) is 107 % of control; the T/C (endpoint: mean survival time, dose: 400.0 mg/kg/injection, schedule: Q04DX003 (ip), vehicle: other) is 96 % of control.
Turning to `NCCCNCCNCCCN`, the T/C runs as follows: (endpoint: mean survival time, dose: 25.0 mg/kg/injection, schedule: Q04DX003 (ip), vehicle: saline) 101 % of control; (endpoint: mean survival time, dose: 50.0 mg/kg/injection, schedule: Q04DX003 (ip), vehicle: saline) 101 % of control; under setting [3], 97 % of control.
In the case of `O=C(O)c1[nH]c(=O)[nH]c(=O)c1F.[Ga]`, the T/C reads like this: (endpoint: mean survival time, dose: 54.0 mg/kg/injection, schedule: Q01DX001 (ip), vehicle: saline with Tween-80) 123 % of control; (endpoint: mean survival time, dose: 177.0 mg/kg/injection, schedule: Q01DX001 (ip), vehicle: saline with Tween-80) 159 % of control.
Take `Cc1cc(C)cc(C(C)C)c1`: the T/C is, setting by setting: under setting [1], 98 % of control; under setting [2], 101 % of control.
Consider `Fc1c(F)c(F)[c]([Ge]([c]2c(F)c(F)c(F)c(F)c2F)([c]2c(F)c(F)c(F)c(F)c2F)[c]2c(F)c(F)c(F)c(F)c2F)c(F)c1F`, for which the T/C was 97 % of control under setting [1]; 86 % of control under setting [8]; 92 % of control under setting [2]; 91 % of control under setting [9]; 91 % of control under setting [11]; 93 % of control under setting [10].
